Numbering of substitutions follows the chain as printed. Calls of active or inactive are those of the source. The rule behind the calls is not given here.
How the values were obtained:
[1] = target: T1, Muscarinic acetylcholine receptor M1 (Homo sapiens, UniProt P11229); assay: (§1) Positive allosteric modulation of human M1 receptor expressed in CHO cells assessed as increase in acetylcholine-induced calcium mobilization pretreated for 2.5 mins followed by acetylcholine addition and measured after 1 min by Fluo-4-AM dye based assay; format: functional, cell-based
T1 sequence (P11229 whole entry): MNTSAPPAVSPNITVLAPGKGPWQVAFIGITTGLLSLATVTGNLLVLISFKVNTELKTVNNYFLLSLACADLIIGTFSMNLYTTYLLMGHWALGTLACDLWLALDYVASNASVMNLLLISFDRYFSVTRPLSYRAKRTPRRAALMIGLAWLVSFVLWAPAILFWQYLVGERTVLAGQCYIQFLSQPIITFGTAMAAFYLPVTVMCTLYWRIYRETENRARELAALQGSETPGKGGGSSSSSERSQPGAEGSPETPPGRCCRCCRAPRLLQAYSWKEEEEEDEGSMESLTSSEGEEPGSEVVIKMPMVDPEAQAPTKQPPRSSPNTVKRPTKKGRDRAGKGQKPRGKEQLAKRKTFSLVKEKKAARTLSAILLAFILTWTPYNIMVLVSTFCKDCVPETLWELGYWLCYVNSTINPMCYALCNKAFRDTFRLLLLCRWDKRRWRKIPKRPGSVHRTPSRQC

[2] = target: T2, Muscarinic acetylcholine receptor M1 (Homo sapiens) (UniProt P11229); assay: as §1; format: functional, cell-based
T2 sequence (whole entry): T1 sequence (P11229 whole entry)

[3] = target: T1, Muscarinic acetylcholine receptor M1; assay: Agonist activity at human M1 receptor expressed in CHO cells assessed as increase in calcium mobilization measured after 2.5 mins by Fluo-4-AM dye based assay; format: functional, cell-based
[4] = target: T3, Muscarinic acetylcholine receptor M1 (Rattus norvegicus, UniProt P08482); assay: (§2) Agonist activity at rat M1 receptor expressed in CHO cells assessed as increase in calcium mobilization measured after 2.5 mins by Fluo-4-AM dye based assay; format: functional, cell-based
T3 sequence (P08482 whole entry): T1 sequence (P11229 whole entry) with A5V, T254S, P309S, R320K, A337G, I413V

[5] = target: T4, Muscarinic acetylcholine receptor M1 (Rattus norvegicus) (UniProt P08482); assay: as §2; format: functional, cell-based
T4 sequence (whole entry): T1 sequence (P11229 whole entry) with A5V, T254S, P309S, R320K, A337G, I413V

[6] = target: T3, Muscarinic acetylcholine receptor M1; assay: (§3) Positive allosteric modulation of rat M1 receptor expressed in CHO cells assessed as increase in acetylcholine-induced calcium mobilization pretreated for 2.5 mins followed by acetylcholine addition and measured after 1 min by Fluo-4-AM dye based assay; format: functional, cell-based
[7] = target: T4, Muscarinic acetylcholine receptor M1 (Rattus norvegicus); assay: as §3; format: functional, cell-based
[8] = Total brain to plasma partition coefficient, Kp in C57BL/6J mouse at 100 mg/kg, ip after 1 hr by LC-MS/MS analysis; format: ADME, organism-based; conditions: brain and plasma
Mus musculus = assay: Cholinergic toxicity in C57BL/6J mouse assessed as induction of seizure activity at 100 mg/kg, ip measured within 30 mins; format: organism-based; conditions: in vivo, 0.5 h
[9] = Ratio of unbound brain to plasma concentration in cannulated Sprague-Dawley rat at 0.2 mg/kg, iv administered via jugular vein as cassette dose measured after 0.25 hrs by LC-MS/MS analysis; format: ADME, organism-based; conditions: for K(p,uu,brain): 0.25 h, BLD = below limit of detection; for Kp uu at 0.25 h: Sprague-Dawley, brain and plasma, read-out: K(p,uu,brain)
[10] = Total brain to plasma partition coefficient, Kp in cannulated Sprague-Dawley rat at 0.2 mg/kg, iv administered via jugular vein as cassette dose measured after 0.25 hrs by LC-MS/MS analysis; format: ADME, organism-based; conditions: for Kp: brain, 0.25 h, BLD = below limit of detection; for Kp at 0.25 h: Sprague-Dawley, brain and plasma
[11] = Protein binding in human plasma assessed as unbound fraction at 5 uL measured after 4 hrs by LC-MS/MS based equilibrium dialysis method; format: ADME, cell-free
[12] = Ratio of unbound brain to plasma concentration in C57BL/6J mouse at 100 mg/kg, ip after 1 hr by LC-MS/MS analysis; format: ADME, organism-based; conditions: brain and plasma, read-out: K(p,uu,brain)
[13] = Protein binding in rat plasma assessed as unbound fraction at 5 uL measured after 4 hrs by LC-MS/MS based equilibrium dialysis method; format: ADME, cell-free
[14] = Protein binding in rat brain assessed as unbound fraction; format: ADME, tissue-based

Structure (SMILES) | EC50 ([4]; read-out: EC50) [µM] | %max [5] [%] | EC50 ([6]; read-out: EC50) [nM] | %max [7] [%] | EC50 ([4]; read-out: pEC50 (converted)) [µM] | other results
Cn1ccc(-c2ccc(Cc3cc(C(=O)N[C@@H]4CCCC[C@H]4O)nc4c3ccn4C)cc2)n1 | 3.24 | 41 | 180 | 87 |  | EC50 [1]: 180 nM; %max [2]: 84%; EC50 [3]: 182 nM
Cn1cc(-c2ccc(Cn3cc(C(=O)N[C@H]4CCCC[C@@H]4O)c4c(F)cc(F)cc43)cn2)cn1 |  |  |  |  |  | Activity [7]: inactive
Cn1ccc(-c2ccc(Cc3cc(C(=O)N[C@@H]4CCOC[C@H]4O)nc4c3ccn4C)cn2)n1 | 0.575 | 67 | 14 | 86 |  | 
Cn1ccc2c(Cc3ccc(-c4cscn4)cc3)cc(C(=O)NC3CCOCC3)nc21 | > 30 |  | 760 | 86 | > 31.6 | 
Cc1nc(-c2ccc(Cc3cc(C(=O)NC4CCOCC4)nc4c3ccn4C)cc2)co1 |  |  | 760 | 88 | > 10 | EC50 ([4]; cho, read-out: EC50): > 10 µM
Cn1ccc(-c2ccc(Cc3cc(C(=O)NC4CC5(COC5)C4)nc4c3ccn4C)cn2)n1 | > 30 |  | 570 | 89 | > 31.6 | 
Cn1ccc(-c2ccc(Cc3cc(C(=O)N[C@@H]4CCCC[C@H]4O)nc4c3ccn4C)cn2)n1 | 2.29 | 53 | 90 to 100 | 87 |  | Kp at 1 h [8]: 0.28; EC50 [1]: 120 nM; %max [2]: 79%; Activity (Mus musculus): Toxic; K(p,uu,brain) [9]: Bld; Kp [10]: Bld; fraction unbound at 4 h, 5 uL [11]: 0.12; EC50 [3]: 123 nM; Kp uu at 1 h [12]: 0.17; fraction unbound at 4 h, 5 uL [13]: 0.03; fraction unbound [14]: 0.04; EC50 ([6]; read-out: pEC50 (converted)): 95.5 nM
Cn1ccc2c(Cc3ccc(-c4nccs4)cc3)cc(C(=O)N[C@@H]3CCOC[C@H]3O)nc21 | 5.62 | 41 | 100 | 90 |  | EC50 [1]: 90 nM; %max [2]: 80%; Activity (Mus musculus): Toxic; Kp uu at 0.25 h [9]: 0.13; Kp at 0.25 h [10]: 0.21; fraction unbound at 4 h, 5 uL [11]: 0.02; EC50 [3]: 89.1 nM; fraction unbound at 4 h, 5 uL [13]: 0.02; fraction unbound [14]: 0.01
Cn1ccc(-c2ccc(Cc3cc(C(=O)NC4CCOCC4)nc4c3ccn4C)cn2)n1 |  | 34 | 760 | 90 | > 10 | EC50 ([4]; cho, read-out: EC50): > 10 µM
Cn1ccc2c(Cc3ccc(-c4nccs4)cc3)cc(C(=O)NC3CCOCC3)nc21 | > 30 |  | 1740 | 78 | > 31.6 | 
Cn1ccc2c(Cc3ccc(-c4nccs4)cc3)cc(C(=O)N[C@@H]3CCCC[C@H]3O)nc21 | > 30 |  | 360 | 91 | > 31.6 | 
Cn1ccc(-c2ccc(Cc3cc(C(=O)NC[C@@H]4CCCO4)nc4c3ccn4C)cn2)n1 |  |  | 490 | 84 | > 10 | EC50 ([4]; cho, read-out: EC50): > 10 µM
Cn1ccc(-c2ccc(Cc3cc(C(=O)NC4CCOC(C)(C)C4)nc4c3ccn4C)cn2)n1 (centres undefined) |  |  | 550 | 94 | > 10 | EC50 ([4]; cho, read-out: EC50): > 10 µM
Cn1ccc(-c2ccc(Cc3cc(C(=O)NC4CC5(COC5)C4)nc4c3ccn4C)cc2)n1 | > 10 |  | 604 | 91 |  | 
Cn1cc(-c2ccc(Cc3cc(C(=O)N[C@@H]4CCCC[C@H]4O)nc4c3ccn4C)cn2)cn1 | 1.21 | 58 | 40 | 89 |  | Kp at 1 h [8]: 0.03; Activity (Mus musculus): Toxic; K(p,uu,brain) [9]: Bld; Kp [10]: Bld; fraction unbound at 4 h, 5 uL [11]: 0.04; Kp uu at 1 h [12]: 0.04; fraction unbound at 4 h, 5 uL [13]: 0.06; fraction unbound [14]: 0.07
Cn1ccc(-c2ccc(Cc3cc(C(=O)N[C@@H]4CCOC[C@H]4O)nc4c3ccn4C)cc2)n1 | 2.24 | 65 | 40 | 87 |  | Kp at 1 h [8]: 0.09; EC50 [1]: 60 nM; %max [2]: 83%; Activity (Mus musculus): Toxic; Kp uu at 0.25 h [9]: 0.05; Kp at 0.25 h [10]: 0.11; fraction unbound at 4 h, 5 uL [11]: 0.02; EC50 [3]: 60.3 nM; Kp uu at 1 h [12]: 0.04; fraction unbound at 4 h, 5 uL [13]: 0.03; fraction unbound [14]: 0.01
O=C(N[C@H]1CCCC[C@@H]1O)C1CN(Cc2ccc(-n3cccn3)cc2)c2ccccc2O1 (some centres undefined) |  |  |  |  |  | Activity [7]: inactive
Cn1ccc2c(Cc3ccc(-n4cccn4)cc3)cc(C(=O)NC3CCOCC3)nc21 |  | 26 | 490 | 87 | > 10 | EC50 ([4]; cho, read-out: EC50): > 10 µM
Cn1ccc(-c2ccc(Cc3cc(C(=O)N[C@@H]4CCC[C@H]4O)nc4c3ccn4C)cn2)n1 |  |  | 260 | 86 | > 10 | EC50 ([4]; cho, read-out: EC50): > 10 µM
Cn1ccc(-c2ccc(Cc3cc(C(=O)NCC4CCOCC4)nc4c3ccn4C)cn2)n1 | > 30 |  | 1580 | 87 | > 31.6 | 
Cn1ccc(-c2ccc(Cc3cc(C(=O)NC4CCOCC4)nc4c3ccn4C)cc2)n1 | > 10 |  | 560 | 89 |  | EC50 [1]: 660 nM; %max [2]: 87%; K(p,uu,brain) [9]: Bld; Kp [10]: Bld; fraction unbound at 4 h, 5 uL [11]: 0.02; EC50 [3]: 661 nM; fraction unbound at 4 h, 5 uL [13]: 0.04; fraction unbound [14]: 0.01

— ChEMBL document CHEMBL4229572, “VU6007477, a Novel M1 PAM Based on a Pyrrolo[2,3-b]pyridine Carboxamide Core Devoid of Cholinergic Adverse Events” (ACS Med Chem Lett, 2018)
